# Measurements: patent US20070112068A1, “Nitrile compound and its use in pest control” (priority 2003, published 2007)
# Assays:
# Format in all cases: in vivo
# [1] = system: Periplaneta fuliginosa; test: Experimental Example 16: treated filter paper in paper box, Periplaneta fuliginosa; settings: 0.1 ml of 5% (w/v) acetone solution on filter paper in paper box; after 7 days
# Experimental: 5% (w/v) solutions of the present compounds (23), (24) and (31) in acetone were prepared. 0.1 ml of the solution was added dropwise onto a filter paper with 2 cm×2 cm and then air-dried. This filter paper was attached to the center of the inside bottom of a paper box having 10 cm (width)×2 cm (height)×7 cm (depth) with a two-sided tape. One hole of 2 mm in width and 2 cm in height was made through one side of this box. This box was placed in a plastic vat with 25 cm×20 cm×8 cm in height and therein 3 females and 3 males of Periplaneta fuliginosa were released. The inside wall of the plastic vat used in this experiment was coated with talc for preventing the escape of cockroaches. The plastic vat contained feed and water and left at 25° C. After 7 days, Periplaneta fuliginosa was observed and the death rate of the pest was calculated. This experiment was repeated two times.
# [2] = system: Formica fusca japonica; test: Experimental Example 19: direct oil spray in CSMA chamber, Formica fusca japonica; settings: 0.4 ml of 0.0625% (w/v) oil sprayed directly; after 72 hours
# Experimental: 18.8 mg of the present compound (31) was dissolved in 30 mL of a mixed solvent of 90 parts by weight of Isopar M (isoparaffin, the registered trade name of Exxon Chemical) and 10 parts by weight of dichloromethane to prepare a 0.0625% (w/v) oil. A plastic cup (200 mL) containing 10 imagoes of Formica fusca japonica was placed on the bottom of a CSMA chamber (width: 46 cm, depth: 46 cm, height: 70 cm). 0.4 ml of the oil was directly sprayed on the test Formica fusca japonica from the upper side of the CSMA chamber. After 10 seconds from spraying, the container containing Formica fusca japonica was removed. Formica fusca japonica was transferred to another plastic container (200 mL) and left together with feed and water at 25° C. After 72 hours from pesticide treatment, Formica fusca japonica was observed and the death rate of the pest was calculated.
# [3] = system: Haemaphysalis longicornis; test: Experimental Example 7: treated polypropylene film pouch, Haemaphysalis longicornis; settings: 0.22 ml of 0.25% (w/v) methanol solution on film; 10 young mites; after 48 hours
# Experimental: A 0.25% (w/v) solution of the present compound (31) in methanol was prepared. Onto one side of a polypropylene film having 5.7 cm (height)×16.5 cm (width), 0.22 ml of the solution was added dropwise uniformly (except for 5 mm width from the edges of the film) and then air-dried. Thereafter, the film was folded in half widthwise in a way that the side containing the present compound became the inner face of the folded film. Then, the two longer sides (5 mm width each) of the folded film were heat-sealed to obtain a pouch. 10 young mites of Haemaphysalis longicornis were put into the polypropylene film pouch. The opening part of the polypropylene film pouch was closed with a clip. After 48 hours, the number of surviving Haemaphysalis longicornis was examined and the death rate of the pest was calculated.
# [4] = system: Halyomorpha mista; test: Experimental Example 24: direct oil spray in CSMA chamber, Halyomorpha mista; settings: 0.4 ml of 5% (w/v) oil sprayed directly; after 72 hours
# Experimental: 1.5 g of the present compound (31) is dissolved in 30 mL of a mixed solvent of 90 parts by weight of Isopar M (isoparaffin; the registered trade name of Exxon Chemical) and 10 parts by weight of dichloromethane to prepare a 5% (w/v) oil. A plastic cup (860 mL) containing 10 imagoes of Halyomorpha mista is covered with a nylon net (mesh width: 2 mm) and then placed on the bottom of a CSMA chamber (width: 46 cm, depth: 46 cm, height: 70 cm). 0.4 ml of the oil is directly sprayed on the test Halyomorpha mista from the upper side of the CSMA chamber. After 10 seconds from spraying, the cup containing Halyomorpha mista is removed, and feed and water are placed in the cup.
# [5] = system: Culex pipiens pallens; test: Experimental Example 25: electric mosquito mat, Culex pipiens pallens; settings: electric mosquito mat (Formulation Example 18); 20 minutes exposure, after 24 hours
# Experimental: An electric mosquito mat of the present compound (31) prepared according to Formulation Example 18 is set on a heater for an electric mosquito mat and then placed on the centre of the floor of a chamber having 70 cm (width)×70 cm (depth)×70 cm (height). After the electric mosquito mat is initiated to be heated with the heater, about 20 female imagoes of Culex pipiens pallens are released in the chamber. After 20 minutes, all test pests are collected, placed in a plastic cup together with absorbent cotton impregnated with 5% sugar water, and left at 25° C.
structure (smiles),measurement,setting,value
N#CC(C#N)(CCC(F)(F)F)CC(F)(F)C(F)(F)C(F)(F)C(F)F [(31)],death rate of the pest,[1],100%
same,death rate of the pest,[2],100%
same,death rate of the pest,[3],100%
same,pesticidal effect,[4],pesticidal effect on Halyomorpha mista is confirmed
same,pesticidal effect,[5],pesticidal effect on Culex pipiens pallens is confirmed
